Test results taken from patent US20160113936A1, “METHODS FOR MODULATING MONOCYTE FUNCTION” (Georgia Regents Research Institute, Inc., priority 2014, published 2016).

Assays:
Hsp70 = details: cited from earlier work
[1] = preclinical data; cited from earlier work
mice with SCD = assay: LPS challenge in Townes sickle cell (SS) and AA mice treated with AUY922; format: in vivo, mouse
Description: FIG. 4 is a schematic diagram of an experimental procedure for assaying HSP90 inhibitors for the treatment SCD.
FIG. 5A is a bar graph of HSP70/GAPDH (relative units) for mice treated with phosphate buffered saline (PBS) or AUY922 (25 mg/Kg B.W.) daily for four days. FIG. 5B is a bar graph of HSP70/GAPDH (relative units) for mice treated with 0.1 μg/g B.W. of LPS or 0.1 μg/g B.W. of LPS plus AUY922 (25 mg/Kg B.W.).
Cytokine (ng/ml) for AA or SS mice treated with control, AUY, LPS, or LPS+AUY is shown.
Mouse Phenotype: B6;129-Hba^tm1(HBA)Tow Hbb^tm2(HBG1,HBB*)Tow/Hbb^tm3(HBG1,HBB)Tow/J
Entire Mouse Globin Locus Removed and Replace by Human Hemoglobin S or A.
AA, SS, & SA mice are available.

monocytic THP-1 cells [2] = assay: Pro-inflammatory cytokine protein expression (Table 1); format: cell-based; details: for IL-6 Protein Expression: Control 7.40; for IL-10 Protein Expression: Control 9.89; for IL-1β Protein Expression: Control 15.24; for IL-8 Protein Expression: Control 110.44; for TNF-α Protein Expression: Control 1611.19
monocytic THP-1 cells [3] = assay: Pro-inflammatory cytokine gene expression by qRT-PCR (Table 1); format: cell-based; details: Control 1.0
Description: The major pro-inflammatory cytokines that are responsible for early inflammatory responses include IL1-α, IL1-β, IL-6, and TNF-α. […] Inflammatory cytokines and tissue factor gene expression were evaluated using quantitative real-time polymerase chain reaction (qRT-PCR). Amount of tissue factor was determined using a one stage clotting assay calibrated against a known amount of tissue factor (INNOVIN).

monocytic THP-1 cells [4] = assay: HSP70 protein levels in monocytic THP-1 cells (autoradiograph, FIG. 1); format: cell-based; details: β-actin as standard
Description: FIG. 1 is an autoradiograph showing HSP70 levels in monocytic THP-1 cells treated with NVP-AUY922 or 17-DMAG. β-actin levels are shown as a standard.

[5] = cited from earlier work
human Hsp90α = human Hsp90α (Homo sapiens, UniProt P07900); details: cited from earlier work
[6] = in vivo; cited from earlier work
NCI 60-cell panel = details: read-out: Growth Inhibition of 50% (GI50); cited from earlier work
non-tumor cells = details: cited from earlier work
[7] = system: Hsp90 derived from transformed cells overexpressing HER-2; details: cited from earlier work

SMILES: CC(C)c1cc(-c2n[nH]c(=O)n2-c2ccc3c(ccn3C)c2)c(O)cc1O [Ganetespib]
- Hsp70 expression (Hsp70): induces the overexpression of Hsp70
- cardiac or liver toxicity [1]: no evidence of cardiac or liver toxicity

SMILES: CCNC(=O)c1noc(-c2cc(C(C)C)c(O)cc2O)c1-c1ccc(CN2CCOCC2)cc1 [AUY922, 5-(2,4-dihydroxy-5-isopropylphenyl)-N-ethyl-4-(4-(morpholinomethyl)phenyl)isoxazole-3-carboxamide]
- inflammation in in vivo model system for SCD (mice with SCD; SS mice): significant decrease in inflammation
- plasma levels of Il-1-Beta (mice with SCD; SS mice): reduces plasma levels
- plasma levels of TNF-alpha (mice with SCD; SS mice): reduces plasma levels
- LPS-induced Il-6 response (mice with SCD; mice with SCD): ablates the profound LPS-induced Il-6 response
- endothelial cell activation (sVCAM) (mice with SCD; mice with SCD, PBS, AUY922, LPS or LPS+AUY): blocks endothelial cell activation
- HSP70/GAPDH pharmacodynamic response (mice with SCD; mice, AUY922 25 mg/Kg B.W. daily for four days, with or without LPS 0.1 μg/g B.W.): meets pharmacodynamic requirements
- IL-6 Protein Expression (monocytic THP-1 cells [2]; AUY922 alone): 7.10
- IL-10 Protein Expression (monocytic THP-1 cells [2]; AUY922 alone): 4.20
- IL-1β Protein Expression (monocytic THP-1 cells [2]; AUY922 alone): 14.24
- IL-8 Protein Expression (monocytic THP-1 cells [2]; AUY922 alone): 130.61
- TNF-α Protein Expression (monocytic THP-1 cells [2]; AUY922 alone): 1437.12
- IL-10 Protein Expression (monocytic THP-1 cells [2]; LPS + AUY922, LPS alone 41.18): 2.95
- IL-6 Protein Expression (monocytic THP-1 cells [2]; LPS + AUY922, LPS alone 156.51): 6.80
- IL-1β Protein Expression (monocytic THP-1 cells [2]; LPS + AUY922, LPS alone 775.64): 14.57
- IL-8 Protein Expression (monocytic THP-1 cells [2]; LPS + AUY922, LPS alone 839.99): 117.87
- TNF-α Protein Expression (monocytic THP-1 cells [2]; LPS + AUY922, LPS alone 4391.73): 1587.49
- IL-1β Gene Expression (Fold) (monocytic THP-1 cells [3]; AUY922 alone): 0.9 Fold
- IL-6 Gene Expression (Fold) (monocytic THP-1 cells [3]; AUY922 alone): 1.2 Fold
- IL-8 Gene Expression (Fold) (monocytic THP-1 cells [3]; AUY922 alone): 1.0 Fold
- IL-10 Gene Expression (Fold) (monocytic THP-1 cells [3]; AUY922 alone): 30.2 Fold
- TNF-α Gene Expression (Fold) (monocytic THP-1 cells [3]; AUY922 alone): 0.8 Fold
- TNF-α Gene Expression (Fold) (monocytic THP-1 cells [3]; LPS + AUY922, LPS alone 7.1): 6.2 Fold
- IL-6 Gene Expression (Fold) (monocytic THP-1 cells [3]; LPS + AUY922, LPS alone 42.5): 3.25 Fold
- IL-8 Gene Expression (Fold) (monocytic THP-1 cells [3]; LPS + AUY922, LPS alone 235.5): 795.5 Fold
- IL-10 Gene Expression (Fold) (monocytic THP-1 cells [3]; LPS + AUY922, LPS alone 350.4): 200.1 Fold
- IL-1β Gene Expression (Fold) (monocytic THP-1 cells [3]; LPS + AUY922, LPS alone 1950): 20 Fold
- HSP70 protein levels (monocytic THP-1 cells [4]): increases HSP70 protein levels

SMILES: CO[C@H]1/C=C\C=C(/C)C(=O)NC2=CC(=O)C(NCCN(C)C)=C(C[C@@H](C)C[C@H](OC)[C@H](O)[C@@H](C)/C=C(\C)[C@@H]1OC(N)=O)C2=O [17-DMAG, 17-Dimethylaminoethylamino-17-demethoxygeldanamycin]
- water solubility [5]: water-soluble
- binding to ATPase site of human Hsp90α (human Hsp90α): high affinity
- bioavailability [6]: excellent bioavailability
- HSP70 protein levels (monocytic THP-1 cells [4]): increases HSP70 protein levels
- GI50 (NCI 60-cell panel): 51 nM

SMILES: C=CCNC1=C2C[C@@H](C)C[C@H](OC)[C@H](O)[C@@H](C)/C=C(\C)[C@H](OC(N)=O)[C@@H](OC)/C=C\C=C(/C)C(=O)NC(=CC1=O)C2=O [17-AAG, 17-allylamino-17-demethoxygeldanamycin]
- toxicity toward non-tumor cells (non-tumor cells): low toxicity
- IC50 ([7]; Hsp90 from HER-2 overexpressing cells (BT474, N87, SKOV3, SKBR3) or BT474 breast carcinoma cells, read-out: 1050 values): 5 to 6 nM
- higher affinity for Hsp90 derived from transformed cells ([7]; transformed cells overexpressing HER-2, comparator not printed (non-tumor cells are named just before)): more than 100 ×
- GI50 (NCI 60-cell panel): 120 nM

SMILES: C=CCNc1c(O)cc2c(O)c1C[C@@H](C)C[C@H](OC)[C@H](O)[C@@H](C)/C=C(\C)[C@H](OC(N)=O)[C@@H](OC)/C=C\C=C(/C)C(=O)N2.Cl [IPI-504, Retaspimycin hydrochloride]
- water solubility [5]: water-soluble
- bioavailability [6]: excellent bioavailability
